From PMC9850959 (European journal of medicinal chemistry, 2019)
Entries after “also recorded” stand apart in the source; their conditions may differ. Where a name gives a salt, the structure may show the parent alone.

Legend:
[1] = cited from earlier work
[2] = cited from earlier work; remark: listed apart in the source
human nSMase2 = biological target: T1, human nSMase2 (Homo sapiens, UniProt Q9NY59); assay: fluorescence-based coupled nSMase2 assay; format: biochemical; conditions: for nSMase2 inhibitory activity (in words): compared with DPTIP or parent analog
T1 sequence (Q9NY59 1-655): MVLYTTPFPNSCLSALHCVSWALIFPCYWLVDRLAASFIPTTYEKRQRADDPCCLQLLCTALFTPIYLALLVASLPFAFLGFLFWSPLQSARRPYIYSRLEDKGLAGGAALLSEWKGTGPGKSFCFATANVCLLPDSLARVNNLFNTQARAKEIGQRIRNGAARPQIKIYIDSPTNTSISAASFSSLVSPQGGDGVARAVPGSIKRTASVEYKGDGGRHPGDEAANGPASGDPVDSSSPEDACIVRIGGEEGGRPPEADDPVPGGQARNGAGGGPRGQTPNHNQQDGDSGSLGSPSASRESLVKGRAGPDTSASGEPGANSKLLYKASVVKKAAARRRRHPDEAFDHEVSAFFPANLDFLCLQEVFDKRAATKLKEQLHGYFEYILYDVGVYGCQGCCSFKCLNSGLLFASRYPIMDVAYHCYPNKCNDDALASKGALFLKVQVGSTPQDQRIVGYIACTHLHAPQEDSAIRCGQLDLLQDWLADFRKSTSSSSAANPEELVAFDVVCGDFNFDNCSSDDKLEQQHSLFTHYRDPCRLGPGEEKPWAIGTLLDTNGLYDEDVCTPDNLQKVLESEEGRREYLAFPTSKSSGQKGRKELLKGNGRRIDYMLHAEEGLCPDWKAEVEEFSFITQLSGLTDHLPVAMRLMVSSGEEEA

[3] = system: AP, choline oxidase, and horseradish peroxidase; assay: counter screen assay without nSMase2 and sphingomyelin, with phosphorylcholine; format: biochemical
[4] = glucuronidation stability in mouse liver microsomes in the presence of UDPGA; format: in vitro ADME
[5] = phase I metabolic stability in mouse liver microsomes; format: in vitro ADME
[6] = phase I metabolic stability in human liver microsomes; format: in vitro ADME
[7] = oral pharmacokinetics in mice; format: in vivo
nSMase2 = conditions: with respect to sphingomyelin; cited from earlier work
[8] = system: IL-1β-induced astrocyte-derived extracellular vesicle release; conditions: GFAP-GFP mice, brain injury model; cited from earlier work
[9] = system: primary astrocyte cultures; conditions: cited from earlier work

O=c1[nH]c(=S)[nH]c(-c2ccccc2)c1Cc1c(O)ccc2ccccc12 [Cambinol]
metabolic stability (in words) [1]: metabolically unstable
solubility compared to GW4869 (in words) [2]: better solubility compared to GW4869

COc1cc(-c2ncc[nH]2)cc(OC)c1O [Compound 3a, 4-(1H-Imidazol-2-yl)-2,6-dimethoxyphenol]
loss of inhibitory potency relative to DPTIP (human nSMase2): 10 fold

Oc1ccc(-c2nc(-c3ccccc3)c(-c3cccs3)[nH]2)cc1 [Compound 6b, 4-(4-Phenyl-5-(thiophen-2-yl)-1H-imidazol-2-yl)phenol]
inhibition in the counter assay (in words) [3]: no longer distinguishable
loss of inhibitory potency relative to DPTIP (human nSMase2): 100 fold

COc1cc(-c2nc(-c3ccccc3)c(-c3cccs3)[nH]2)cc(O)c1O [Compound 6c, 3-Methoxy-5-(4-phenyl-5-(thiophen-2-yl)-1H-imidazol-2-yl)benzene-1,2-diol]
inhibition in the counter assay (in words) [3]: potent inhibition

Oc1cc(-c2nc(-c3ccccc3)c(-c3cccs3)[nH]2)cc(O)c1O [Compound 6d, 5-(4-Phenyl-5-(thiophen-2-yl)-1H-imidazol-2-yl)benzene-1,2,3-triol]
inhibition in the counter assay (in words) [3]: potent inhibition

Oc1c(Cl)cc(-c2nc(-c3ccccc3)c(-c3cccs3)[nH]2)cc1Cl [Compound 6e, 2,6-Dichloro-4-(4-phenyl-5-(thiophen-2-yl)-1H-imidazol-2-yl)phenol]
nSMase2 inhibitory activity (in words) (human nSMase2): complete loss of activity

COc1cc(-c2nc(-c3ccccc3)c(-c3cccs3)[nH]2)cc(OC)c1OC [Compound 6g]
nSMase2 inhibitory activity (in words) (human nSMase2): completely inactive

Oc1ccccc1-c1nc(-c2ccccc2)c(-c2cccs2)[nH]1 [Compound 6i]
nSMase2 inhibitory activity (in words) (human nSMase2): complete loss of potency

Oc1cccc(-c2nc(-c3ccccc3)c(-c3cccs3)[nH]2)c1 [Compound 6j]
nSMase2 inhibitory activity (in words) (human nSMase2): complete loss of potency

CC(C)Oc1cc(-c2nc(-c3ccccc3)c(-c3cccs3)[nH]2)cc(OC(C)C)c1O [Compound 9b, 2,6-Diisopropoxy-4-(4-phenyl-5-(thiophen-2-yl)-1H-imidazol-2-yl)phenol]
resistance to glucuronidation (in words) ([4]; mouse liver microsomes, UDPGA): completely resistant to glucuronidation; also recorded: complete resistance to glucuronidation

Oc1c(OC2CCCC2)cc(-c2nc(-c3ccccc3)c(-c3cccs3)[nH]2)cc1OC1CCCC1 [Compound 9c, 2,6-Bis(cyclopentyloxy)-4-(5-phenyl-4-(thiophen-2-yl)-1H-imidazol-2-yl)phenol]
nSMase2 inhibitory activity (in words) (human nSMase2): decrease in potency

Oc1c(OCC(F)(F)F)cc(-c2nc(-c3ccccc3)c(-c3cccs3)[nH]2)cc1OCC(F)(F)F [Compound 12, 4-(4-Phenyl-5-(thiophen-2-yl)-1H-imidazol-2-yl)-2,6-bis(2,2,2-trifluoroethoxy)phenol]
phase I metabolic stability (in words) [5]: metabolic stability was completely regained
phase I metabolic stability (in words) [6]: metabolic stability was completely regained

CC(C)(C)Oc1cc(-c2nc(-c3ccccc3)c(-c3cccs3)[nH]2)cc(OC(C)(C)C)c1O [Compound 16, 2,6-Di-t-butoxy-4-(4-phenyl-5-(thiophen-2-yl)-1H-imidazol-2-yl)phenol]
nSMase2 inhibitory activity (in words) (human nSMase2): decrease in potency

COc1cc(-c2nccs2)cc(OC)c1O [Compound 19, 2,6-Dimethoxy-4-(thiazol-2-yl)phenol]
nSMase2 inhibitory activity (in words) (human nSMase2): substantial decrease in potency

COc1cc(C2=NCCN2)cc(OC)c1O [Compound 22, 4-(4,5-Dihydro-1H-imidazol-2-yl)-2,6-dimethoxyphenol hydrochloride]
nSMase2 inhibitory activity (in words) (human nSMase2): complete loss of potency

COc1cc(-c2nc(C(C)C)c(C(C)C)[nH]2)cc(OC)c1O [Compound 25b, 4-(4,5-Diisopropyl-1H-imidazol-2-yl)-2,6-dimethoxyphenol hydrochloride]
phase I metabolic stability (in words) [5]: metabolically stable
remaining at 1 h ([4]; mouse, liver microsomes, pH 7.5): < 20%
phase I metabolic stability (in words) [6]: metabolically stable
major metabolite in plasma ([7]; mouse plasma after oral administration): glucuronide
plasma exposure compared to DPTIP (in words) ([7]; oral administration, mice): higher plasma exposure; also recorded: superior plasma pharmacokinetics
CNS penetration (in words) ([7]; oral, mice): negligible CNS penetration

COc1cc(-c2nc(-c3cccs3)c(-c3ccccc3)[nH]2)cc(OC)c1O [DPTIP, 2,6-dimethoxy-4-[4-phenyl-5-(2-thienyl)-1H-imidazol-2-yl]phenol]
mechanism of inhibition (nSMase2): noncompetitive
phase I metabolic stability (in words) [5]: stable
loss of the parent compound ([4]; mouse liver microsomes, UDPGA, 1 h): 33%
IL-1β-induced astrocyte-derived extracellular vesicle release (in words) [8]: attenuate
phase I metabolic stability (in words) [6]: stable
extracellular vesicle release (in words) [9]: dose-dependently inhibit extracellular vesicle release

O=C(/C=C\c1ccc(/C=C\C(=O)Nc2ccc(C3=NCCN3)cc2)cc1)Nc1ccc(C2=NCCN2)cc1 [GW4869]
aqueous solubility (in words) [2]: negligible aqueous solubility
